Publication PMC13193874, “Targeting PIP5K ameliorates hepatic cancer by inhibiting PI3K/AKT and the autophagy mechanism and enhancing ROS-mediated apoptosis” (Frontiers in Pharmacology, 2026)

Target: PIP5K1B (Homo sapiens, UniProt O14986)
Experiment: cell-free kinase assay (Thermo Fisher SelectScreen, ADP detection), 10-point dose response; […] inhibition at […]
Format: biochemical

PIP5K1B, sequence (O14986 whole entry): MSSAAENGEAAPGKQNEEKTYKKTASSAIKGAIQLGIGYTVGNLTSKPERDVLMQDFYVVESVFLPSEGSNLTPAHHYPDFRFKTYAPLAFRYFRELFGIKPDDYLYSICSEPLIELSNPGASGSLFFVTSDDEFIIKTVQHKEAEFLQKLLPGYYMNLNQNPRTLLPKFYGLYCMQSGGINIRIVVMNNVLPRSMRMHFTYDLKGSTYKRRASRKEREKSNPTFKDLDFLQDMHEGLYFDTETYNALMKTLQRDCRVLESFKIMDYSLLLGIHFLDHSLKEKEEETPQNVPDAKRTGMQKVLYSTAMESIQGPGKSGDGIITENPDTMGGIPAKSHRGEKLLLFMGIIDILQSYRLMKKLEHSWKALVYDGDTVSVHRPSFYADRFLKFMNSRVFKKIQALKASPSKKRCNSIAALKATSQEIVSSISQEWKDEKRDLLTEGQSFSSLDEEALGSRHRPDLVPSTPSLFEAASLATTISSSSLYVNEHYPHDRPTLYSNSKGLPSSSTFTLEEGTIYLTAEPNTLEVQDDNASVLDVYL

IC50: 281 nM
SMILES: Fc1ccc(Nc2nc(Nc3ccc(-c4nc5ccccc5[nH]4)cc3)nc(N3CCOCC3)n2)cc1 [15g, N2-[4-(1H-benzimidazol-2-yl)phenyl]-N4-(4-fluorophenyl)-6-(4-morpholinyl)-1,3,5-triazine-2,4-diamine]
